In US11771765B2, “Light augmented treatment method” (The Procter & Gamble Company, priority 2019, dated 2023):

Key:
M. furfur [1] = test: Dependence of photosensitivity on wavelength, M. furfur (Table 5); format: cell-based, Malassezia furfur; design: overnight growth in mDixon: unit not given here; settings: for overnight growth in mDixon: N=1
Description: Dependence of photosensitivity on wavelength. A fresh overnight culture is diluted 100 fold and grown for three hours to an OD of 0.16. M. furfur is treated at the indicated dose and cultured another three hours. Cells are harvested by centrifugation, suspended in PBS, and exposed to an LED array at the indicated wavelength. The illumination is for ten minutes with 1200 foot candles. The cultures are then allowed to grow overnight in mDixon. N=1.

M. furfur [2] = test: M. furfur growth after 20 min treatment, then 409 nm light or dark (Table 2); format: cell-based, Malassezia furfur
Description: Cells are grown in the medium of choice, generally one requiring respiration. In the case of Malassezia furfur that medium is modified Dixon medium (mDixon) (per one liter: 36 g malt extract (Difco 0186-17), 20 g ox bile (provided by American Laboratories, Inc., of Omaha, Nebraska, as Lot No. 03130792), 10 ml Tween 40 (Aldrich 27435-6), 6 g peptone (Difco 0118-17), 2 ml oleic acid (Baker 2114-01), and 2 ml glycerol (Sigma G-7893)). [Candida and YPG, Saccharomyces and YNB (without amino acids) to which we added 40 μg/ml each of uracil, histidine, and methionine plus 130 μg/ml leucine and 2% ethanol and 0.1% yeast extract.] Conventional medium may also be used for other microbials. Starting cultures are prepared by diluting a fresh overnight culture that is out of log phase 1:100 and incubating with shaking at 31° C. in a 250 mL shake flask (Corning, 431144) with 20 mL medium shaking at 200-250 rpm for about 3 hours to ensure the cells had returned to growth phase. At this time, the test agent is added to the flasks to afford the final concentration for testing. The cells are cultured for 1 hour with the test agent. At this time, the cells typically have an OD at 600 nm in the range of 0.25 to 0.8. Generally, we isolate 2.5 OD*mLs of cells calculated as desired OD*mLs divided by the OD600 of the cells. These media samples are centrifuged (Beckman Coulter Allegra™ 6KR centrifuge) 10 minutes at RT at 3200 rpm to pellet the cells. The supernatant is poured off and the tubes are set upside down on a folded paper towel to drain off the remains of media. Two and one half milliliters of PBS (Gibco, pH 7.4, without magnesium chloride or calcium chloride, 14190-144) is added and the cells resuspended. One mL of cells is transferred to each of two 12-well plates (Falcon, polystyrene, 353043). One plate is stored in the dark and the other is exposed to the light with the plate cover on the plate. […] When the light exposure is completed, the samples are mixed by slowly vortexing or pipetting and 0.65 mL of each sample is transferred to 13 mL of medium for overnight growth at 31° C. with shaking. The following morning, typically 18 hours later, the ODs at 600 nm are determined. Successful materials are those that show at least a 50% reduction in growth after light exposure relative to a dark sample.
M. furfur is incubated for twenty minutes with the indicated treatment. A cell pellet is collected after centrifugation so that most of the anti-fungal materials is expected to have been removed. The cell pellet is suspended in PBS and either treated with light (409 nm, 1100 foot candles) for ten minutes or stored in the dark for ten minutes. Samples are then diluted into mDixon with subsequent growth indicated by OD 600 nm.

[3] = LED arrays of 520 (green) and 595 (yellow) light
[4] = 8 ppm 20 min, Light 409 nm, 1100 foot candles, 10 min
[5] = 16 ppm 20 min, Light 409 nm, 1100 foot candles, 10 min
[6] = 24 ppm 20 min, Light 409 nm, 1100 foot candles, 10 min
[7] = 32 ppm 20 min, Light 409 nm, 1100 foot candles, 10 min
[8] = prior treatment, with the addition of light

| Compound | photosensitivity (M. furfur [1]; LED array of 409 nm light) | photosensitivity (M. furfur [1]; [3]) | growth, OD 600 nm (M. furfur [2]; 8 ppm 20 min, Dark 10 min) | growth, OD 600 nm (M. furfur [2]; [4]) | growth, OD 600 nm (M. furfur [2]; 16 ppm 20 min, Dark 10 min) | growth, OD 600 nm (M. furfur [2]; [5]) | growth, OD 600 nm (M. furfur [2]; 24 ppm 20 min, Dark 10 min) | growth, OD 600 nm (M. furfur [2]; [6]) | growth, OD 600 nm (M. furfur [2]; 32 ppm 20 min, Dark 10 min) | growth, OD 600 nm (M. furfur [2]; [7]) | growth inhibition (M. furfur [2]; [8]) | further results |
| --- | --- | --- | --- | --- | --- | --- | --- | --- | --- | --- | --- | --- |
| Cc1cc(CC(C)CC(C)(C)C)n(O)c(=O)c1.NCCO (centres unmarked) [Piroctone Olamine, 1-Hydroxy-4-methyl-6-(2,4,4-trimethylpentyl)-2-pyridone monoethanolamine salt] | observed photosensitivity | not with LED arrays of 520 (green) and 595 (yellow) light | 7.82 | 7.35 | 7.90 | 0.07 | 7.07 | 0.03 | 6.76 | 0.02 | considerable growth inhibition | overnight growth in mDixon (M. furfur [1]; 8 ppm 3 h, 409 nm LED array, 10 min, 1200 foot candles): 0.891; overnight growth in mDixon (M. furfur [1]; 8 ppm 3 h, 520 nm LED array, 10 min, 1200 foot candles): 4.34; overnight growth in mDixon (M. furfur [1]; 8 ppm 3 h, 595 nm LED array, 10 min, 1200 foot candles): 5.59; overnight growth in mDixon (M. furfur [1]; 8 ppm 3 h, Dark): 4.36; overnight growth in mDixon (M. furfur [1]; 12 ppm 3 h, 409 nm LED array, 10 min, 1200 foot candles): 0.068; overnight growth in mDixon (M. furfur [1]; 12 ppm 3 h, 520 nm LED array, 10 min, 1200 foot candles): 3.76; overnight growth in mDixon (M. furfur [1]; 12 ppm 3 h, 595 nm LED array, 10 min, 1200 foot candles): 4.22; overnight growth in mDixon (M. furfur [1]; 12 ppm 3 h, Dark): 2.79; growth, OD 600 nm (M. furfur [2]; 48 ppm 20 min, Dark 10 min): 7.21; growth, OD 600 nm (M. furfur [2]; 48 ppm 20 min, Light 409 nm, 1100 foot candles, 10 min): 0.03; growth, OD 600 nm (M. furfur [2]; 64 ppm 20 min, Dark 10 min): 7.23; growth, OD 600 nm (M. furfur [2]; 64 ppm 20 min, Light 409 nm, 1100 foot candles, 10 min): 0.02 |
| [O-]n1ccccc1=S.[O-]n1ccccc1=S.[Zn+2] [ZPT, zinc salt of 1-hydroxy-2-pyridinethione] | observed photosensitivity | not with LED arrays of 520 (green) and 595 (yellow) light | 9.02 | 3.16 | 5.72 | 0.24 | 5.54 | 2.41 | 2.61 | 1.65 | considerable growth inhibition | overnight growth in mDixon (M. furfur [1]; 6 ppm 3 h, 409 nm LED array, 10 min, 1200 foot candles): 0.354; overnight growth in mDixon (M. furfur [1]; 6 ppm 3 h, 520 nm LED array, 10 min, 1200 foot candles): 3.37; overnight growth in mDixon (M. furfur [1]; 6 ppm 3 h, 595 nm LED array, 10 min, 1200 foot candles): 3.75; overnight growth in mDixon (M. furfur [1]; 6 ppm 3 h, Dark): 3.31; growth, OD 600 nm (M. furfur [2]; 4 ppm 20 min, Dark 10 min): 10.14; growth, OD 600 nm (M. furfur [2]; 4 ppm 20 min, Light 409 nm, 1100 foot candles, 10 min): 4.86; growth inhibition (M. furfur [2]; 16 to 32 ppm, without light exposure): some growth inhibition |
